Assay results from ChEMBL document CHEMBL5236591, “Targeting Gatekeeper Mutations for Kinase Drug Discovery” (J Med Chem, 2022).
Each block holds one molecule with its values, some of them ahead of it.

Experiments:
[1] = Antiproliferative activity against mouse 32D cells expressing FLT3-ITD assessed as cell growth inhibition; format: functional
[2] = Antiproliferative activity against mouse 32D cells expressing FLT3-ITD-F691L assessed as cell growth inhibition; format: functional
[3] = Antiproliferative activity against mouse 32D cells expressing FLT3-D835Y assessed as cell growth inhibition; format: functional
[4] = tested on: BaF3; experiment: cells; conditions: Mus musculus
Description: Antiproliferative activity against mouse BaF3 cells harboring TRKA F589L mutant assessed as cell growth inhibition

[5] = molecular target: Mast/stem cell growth factor receptor Kit (Homo sapiens, UniProt P10721); experiment: Inhibition of wild type KIT (unknown origin)
Mast/stem cell growth factor receptor Kit, sequence (P10721 whole entry): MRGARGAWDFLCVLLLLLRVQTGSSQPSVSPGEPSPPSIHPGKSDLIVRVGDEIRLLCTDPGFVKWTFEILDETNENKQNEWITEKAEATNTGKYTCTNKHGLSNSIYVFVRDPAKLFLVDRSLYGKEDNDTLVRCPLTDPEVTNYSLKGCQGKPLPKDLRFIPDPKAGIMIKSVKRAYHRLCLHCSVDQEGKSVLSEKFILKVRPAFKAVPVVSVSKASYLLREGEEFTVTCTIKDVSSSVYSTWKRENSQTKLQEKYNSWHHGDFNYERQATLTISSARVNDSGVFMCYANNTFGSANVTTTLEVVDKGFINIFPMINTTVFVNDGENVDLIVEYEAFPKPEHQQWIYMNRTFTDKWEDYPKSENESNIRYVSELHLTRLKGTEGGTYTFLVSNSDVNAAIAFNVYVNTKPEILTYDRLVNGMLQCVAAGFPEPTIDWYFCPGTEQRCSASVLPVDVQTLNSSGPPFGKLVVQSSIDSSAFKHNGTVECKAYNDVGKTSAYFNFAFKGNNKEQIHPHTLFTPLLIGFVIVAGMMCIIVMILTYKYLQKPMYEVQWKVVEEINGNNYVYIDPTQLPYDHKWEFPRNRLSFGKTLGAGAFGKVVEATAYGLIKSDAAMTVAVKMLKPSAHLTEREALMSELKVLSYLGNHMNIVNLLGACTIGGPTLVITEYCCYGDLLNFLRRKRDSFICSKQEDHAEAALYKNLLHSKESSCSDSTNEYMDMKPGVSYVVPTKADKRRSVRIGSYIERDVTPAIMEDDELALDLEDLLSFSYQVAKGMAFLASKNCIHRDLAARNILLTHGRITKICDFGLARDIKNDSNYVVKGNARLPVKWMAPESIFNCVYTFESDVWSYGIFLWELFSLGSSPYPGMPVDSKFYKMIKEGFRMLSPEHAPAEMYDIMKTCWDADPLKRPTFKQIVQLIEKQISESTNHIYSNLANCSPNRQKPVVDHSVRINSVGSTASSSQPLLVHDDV

[6] = tested on: BaF3; experiment: Antiproliferative activity against mouse BaF3 cells harboring FLT3 D835Y mutant assessed as cell growth inhibition; format: functional, cell-based
[7] = tested on: MOLM-14; experiment: Antiproliferative activity against human MOLM-14 cells harboring FLT3 F691L mutant assessed as cell growth inhibition; format: functional, cell-based
[8] = tested on: BaF3; experiment: Antiproliferative activity against mouse BaF3 cells harboring FLT3 F691L mutant assessed as cell growth inhibition; format: functional, cell-based
[9] = molecular target: Fibroblast growth factor receptor 4 (Mus musculus, UniProt Q03142); experiment: Inhibition of FGFR4 in mouse BaF3 cells; format: cell-based
Fibroblast growth factor receptor 4, sequence (Q03142 whole entry): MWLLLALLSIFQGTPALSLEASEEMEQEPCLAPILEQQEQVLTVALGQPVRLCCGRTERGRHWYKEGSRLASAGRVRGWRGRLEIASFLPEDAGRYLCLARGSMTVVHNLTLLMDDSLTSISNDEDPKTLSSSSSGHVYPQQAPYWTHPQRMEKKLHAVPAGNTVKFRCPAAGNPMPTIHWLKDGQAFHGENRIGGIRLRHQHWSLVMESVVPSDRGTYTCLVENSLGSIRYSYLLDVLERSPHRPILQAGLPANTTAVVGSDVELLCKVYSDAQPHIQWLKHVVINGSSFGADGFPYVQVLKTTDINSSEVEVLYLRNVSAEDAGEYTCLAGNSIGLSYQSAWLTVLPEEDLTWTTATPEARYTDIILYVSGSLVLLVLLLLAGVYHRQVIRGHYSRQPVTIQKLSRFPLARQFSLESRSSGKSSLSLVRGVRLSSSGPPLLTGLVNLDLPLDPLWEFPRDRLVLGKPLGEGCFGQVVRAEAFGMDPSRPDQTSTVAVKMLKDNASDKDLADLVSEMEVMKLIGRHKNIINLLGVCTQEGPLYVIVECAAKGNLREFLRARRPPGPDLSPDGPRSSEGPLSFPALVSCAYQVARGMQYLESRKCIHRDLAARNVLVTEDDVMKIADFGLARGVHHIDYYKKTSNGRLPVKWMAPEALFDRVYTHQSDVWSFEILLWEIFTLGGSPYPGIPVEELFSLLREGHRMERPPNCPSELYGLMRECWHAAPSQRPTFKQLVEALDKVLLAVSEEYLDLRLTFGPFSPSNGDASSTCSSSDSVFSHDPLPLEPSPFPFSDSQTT

Structure (SMILES): CCCNc1nc(Nc2ccc(C#N)cc2)ncc1C#CCCCNC(=O)[C@H](C)N(C)C(=O)/C=C/CN(C)C [FF-10101]
GI50 [1]: 1.9 nM | GI50 [2]: 10 nM | GI50 [3]: 0.81 nM

Structure (SMILES): COCCOc1cc(F)c2c(Nc3ccc(NC(=O)Cn4cc(C(C)C)nn4)cc3)ncnc2c1
IC50 [5]: 3 nM

Structure (SMILES): FC(F)(F)c1ccc(CNc2ccc(Cc3c[nH]c4ncc(Cl)cc34)cn2)cn1 [PEXIDARTINIB]
IC50 [6]: 4700 nM | IC50 [7]: 670 nM | IC50 [8]: 97 nM

Now from value to molecule:

IC50 [4]: 27.8 nM
Structure (SMILES): C[C@@H]1CCc2ncc(F)cc2[C@H]2CCCN2c2ccn3ncc(c3n2)C(=O)N1 [SELITRECTINIB]

IC50 [9]: 3.5 nM
Structure (SMILES): C=CC(=O)Nc1cc(N2CCC(N3CCOCC3)CC2)cc(F)c1Nc1n[nH]c2ccc(O[C@H](C)c3c(Cl)cncc3Cl)cc12
